According to patent US20110183978A1, “Phenylpyri(mi)dinylazoles” (Bayer CropScience AG, priority 2009, published 2011):

assay: physchem; conditions: LogPA

| SMILES | chromatographic logP |
| --- | --- |
| CC(C)Cn1cc(-c2ccnc(N3CCCC3=O)c2)c(-c2ccc(F)cc2)n1 [Compound 187] | 3.19 |
| FCC(CF)n1cc(-c2ccncc2)c(-c2ccc(F)cc2)n1 [Compound 177] | 1.16 |
| Fc1ccc(-c2nn(C3CCCCC3)cc2-c2ccncc2)cc1 [Compound 168] | 1.91 |
| CCC(=O)Nc1cc(-c2c(-c3ccc(Cl)cc3F)nn(C)c2C(F)(F)F)ccn1 [Compound 197] | 3.32 |

The next lines start with the values.

| chromatographic logP | SMILES |
| --- | --- |
| 3.65 | CCOC(=O)Nc1cc(-c2cn(C(C)c3ccccc3F)nc2-c2ccc(F)cc2)ccn1 (centres unmarked) [Compound 263] |
| 2.47 | CCn1cc(-c2ccnc(NC(=O)c3cn(C)nc3C(F)F)c2)c(-c2ccc(F)cc2)n1 [Compound 333] |
| 2.54 | Cn1cc(-c2ccnc(NC(=O)CCc3ccccc3)c2)c(-c2ccc(F)cc2)n1 [Compound 343] |
| 2.05 | CC(C)Nc1nccc(-c2cn(CCCl)nc2-c2ccc(F)cc2)n1 [Compound 359] |
| 3.88 | CC(C)n1cc(-c2ccnc(NC(c3ccc(F)cc3)C(F)(F)F)c2)c(-c2ccc(F)cc2)n1 (centres unmarked) [Compound 324] |
| 2.41 | CCC(C)n1cc(-c2ccnc(NC(C)C)n2)c(-c2ccc(F)cc2)n1 (centres unmarked) [Compound 360] |
| 3.45 | Cc1csc2c(-c3cn(CC4CC4)nc3-c3ccc(F)cc3)ncnc12 [Compound 289] |
| 4.07 | CCC(=O)Nc1cc(-c2c(-c3ccc(F)cc3)nn(C(C)C)c2C(F)(F)F)ccn1 [Compound 304] |
| 3.66 | CC(C)n1cc(-c2ccnc(NC(c3ccccc3)C(F)(F)F)c2)c(-c2ccc(F)cc2)n1 (centres unmarked) [Compound 325] |
| 1.79 | COCCn1cc(-c2ccnc(NC(C)C)n2)c(-c2ccc(F)cc2)n1 [Compound 358] |
| 2.61 | Cn1cc(-c2ccnc(NC(=O)c3ccc(F)cc3)c2)c(-c2ccc(F)cc2)n1 [Compound 344] |
| 1.29 | CC(C)n1cc(-c2ncnc3c2CCCN3)c(-c2ccc(F)cc2)n1 [Compound 311] |

same assay, conditions: LogPA (logP of the stated pure compound or, in a mixture, of the main isomer, 1-substituted 3-aryl-1H-pyrazole)

| chromatographic logP | SMILES |
| --- | --- |
| 4.89 | O=C(Nc1ccccc1)c1cc(-c2cn(C3CCCCO3)nc2-c2cccc(Cl)c2)ccn1 (centres unmarked) [Compound 96] |
| 1.31 | COc1ccc(-c2nn(C3CCCCO3)cc2-c2ccnc(N)c2)cc1 (centres unmarked) [Compound 69] |
| 1.38 | Nc1cc(-c2cn(C3CCCCO3)nc2-c2ccc(F)cc2)ccn1 (centres unmarked) [Compound 39] |
| 0.41 | Fc1ccc(-c2nn(Cc3ncc[nH]3)cc2-c2ccncc2)cc1 [Compound 143] |
| 3.47 | C#CCn1ccc2c(-c3cn(C4CCCCO4)nc3-c3ccc(F)cc3)ccnc21 (centres unmarked) [Compound 49] |
| 2.4 | Fc1ccc(-c2nn(Cc3ccc(F)c(Oc4ccccc4)c3)cc2-c2ccncc2)cc1 [Compound 139] |
| 1.84 | Fc1ccc(-c2nn(Cc3ccccc3F)cc2-c2ccncc2)cc1 [Compound 128] |
| 1.35 | Fc1ccc(-c2c(-c3ccncc3)cnn2C2CCCCO2)c(F)c1 (centres unmarked) [Compound 56, 4-[5-(2,4-difluorophenyl)-1-(tetrahydro-2H-pyran-2-yl)-1H-pyrazol-4-yl]pyridine] |
| 2.93 | NC(=O)c1cc(-c2cn(C3CCCCO3)nc2-c2cccc(Cl)c2)ccn1 (centres unmarked) [Compound 95] |
| 2.72 | CNC(=O)c1cc(-c2cn(C3CCCCO3)nc2-c2ccc(F)cc2)ccn1 (centres unmarked) [Compound 90] |
| 2.37 | C=CCNc1nccc(-c2cnn(CC(C)C)c2-c2ccc(F)cc2)n1 [Compound 149] |
| 1.54 | COc1ccc(-c2nn(C3CCCCO3)cc2-c2ncnc3[nH]ccc23)cc1 (centres unmarked) [Compound 65] |
| 1.66 | Clc1cccc(-c2c(-c3ccncc3)cnn2C2CCCCO2)c1Cl (centres unmarked) [Compound 76, 4-[5-(2,3-dichlorophenyl)-1-(tetrahydro-2H-pyran-2-yl)-1H-pyrazol-4-yl]pyridine] |
| 1.45 | N#Cc1cc(-c2c(-c3ccncc3)cnn2C2CCCCO2)ccc1F (centres unmarked) [Compound 61, 2-fluoro-5-[4-(pyridin-4-yl)-1-(tetrahydro-2H-pyran-2-yl)-1H-pyrazol-5-yl]benzonitrile] |
| 0.17 | OCC(O)Cn1cc(-c2ccncc2)c(-c2ccc(F)cc2)n1 (centres unmarked) [Compound 124] |
| 3.15 | CNC(=O)c1cc(-c2cn(C3CCCCO3)nc2-c2cccc(Cl)c2)ccn1 (centres unmarked) [Compound 83] |

same assay, conditions: pH 2.3, LogP (pH 2.3)

| SMILES | chromatographic logP |
| --- | --- |
| Clc1ccc(-c2c(-c3ccncc3)cnn2C2CCCCO2)cc1 (centres unmarked) [[X-18], 4-[5-(4-chlorophenyl)-1-(tetrahydro-2H-pyran-2-yl)-1H-pyrazol-4-yl]pyridine] | 1.52 |
| FC1(F)Oc2cccc(-c3c(-c4ccncc4)cnn3C3CCCCO3)c2O1 (centres unmarked) [[X-4], 4-[5-(2,2-difluoro-1,3-benzodioxol-4-yl)-1-(tetrahydro-2H-pyran-2-yl)-1H-pyrazol-4-yl]pyridine] | 1.64 |
| c1ccc(Oc2ccc(-c3c(-c4ccncc4)cnn3C3CCCCO3)cc2)cc1 (centres unmarked) [[X-10], 4-[5-(4-phenoxyphenyl)-1-(tetrahydro-2H-pyran-2-yl)-1H-pyrazol-4-yl]pyridine] | 1.88 |

The remaining lines, values ahead:

| chromatographic logP | SMILES |
| --- | --- |
| 0.97 | CCn1cc(-c2ccnc(N)c2)c(-c2ccc(F)cc2)n1 [[III-3], 4-[1-Ethyl-3-(4-fluorophenyl)-1H-pyrazol-4-yl]pyridin-2-amine] |
| 1.26 | c1cc(-c2cnn(C3CCCCO3)c2-c2ccc(N3CCOCC3)cc2)ccn1 (centres unmarked) [[X-15], 4-{4-[4-(pyridin-4-yl)-1-(tetrahydro-2H-pyran-2-yl)-1H-pyrazol-5-yl]phenyl}morpholine] |
| 1.03 | Nc1cc(-c2cn(CC(F)F)nc2-c2ccc(F)cc2)ccn1 [[III-4], 4-[1-(2,2-Difluoroethyl)-3-(4-fluorophenyl)-1H-pyrazol-4-yl]pyridin-2-amine] |
| 4.46 | CC(C)n1cc(B2OC(C)(C)C(C)(C)O2)c(-c2ccc(F)cc2)n1 [[V-1], 3-(4-Fluorophenyl)-1-isopropyl-4-(4,4,5,5-tetramethyl-1,3,2-dioxaborolan-2-yl)-1H-pyrazole] |
| 4.77 | CC(C)(C)OC(=O)N1CCC(n2cc(Br)c(-c3ccc(F)cc3)n2)CC1 [[VI-27], Tert-butyl 4-[4-bromo-3-(4-fluorophenyl)-1H-pyrazol-1-yl]piperidin-1-carboxylate] |
| 4.61 | CC(C)n1nc(-c2ccc(F)cc2)c(Br)c1OC(F)F [[VI-b-2], 4-Bromo-5-(difluoromethoxy)-3-(4-fluorophenyl)-1-isopropyl-1H-pyrazole] |
| 0.98 | COCCn1cc(-c2ccnc(N)c2)c(-c2ccc(F)cc2)n1 [[III-2], 4-[3-(4-Fluorophenyl)-1-(2-methoxyethyl)-1H-pyrazol-4-yl]pyridin-2-amine] |
| 3.32 | CCn1cc(Br)c(-c2ccc(F)cc2)n1 [[VI-2], 4-Bromo-1-ethyl-3-(4-fluorophenyl)-1H-pyrazole] |
| 1.61 | COc1ccc(-c2c(-c3ccncc3)cnn2C2CCCCO2)c2ccccc12 (centres unmarked) [[X-2], 4-[5-(4-methoxy-1-naphthyl)-1-(tetrahydro-2H-pyran-2-yl)-1H-pyrazol-4-yl]pyridine] |
| 1.22 | CC(C)n1cc(-c2ccnc(N)c2)c(-c2ccc(F)cc2)n1 [[III-1], 4-[3-(4-Fluorophenyl)-1-isopropyl-1H-pyrazol-4-yl]pyridin-2-amine] |
| 4.06 | CC1(C)OB(c2cn(CCCl)nc2-c2ccc(F)cc2)OC1(C)C [[V-10], 1-(2-Chloroethyl)-3-(4-fluorophenyl)-4-(4,4,5,5-tetramethyl-1,3,2-dioxaborolan-2-yl)-1H-pyrazole] |
| 2.69 | N#CCCn1cc(Br)c(-c2ccc(F)cc2)n1 [[VI-23], 3-[4-bromo-3-(4-fluorophenyl)-1H-pyrazol-1-yl]propanonitrile] |
| 3.51 | CCOCCn1cc(Br)c(-c2ccc(F)cc2)n1 [[VI-20], 4-Bromo-1-(2-ethoxyethyl)-3-(4-fluorophenyl)-1H-pyrazole] |
| 1.26 | COc1cc(F)ccc1-c1c(-c2ccncc2)cnn1C1CCCCO1 (centres unmarked) [[X-14], 4-[5-(4-fluoro-2-methoxyphenyl)-1-(tetrahydro-2H-pyran-2-yl)-1H-pyrazol-4-yl]pyridine] |

same assay, conditions: pH 2.7, logP (pH 2.7)

| SMILES | chromatographic logP |
| --- | --- |
| CC(C)Cn1cc(-c2ccnc(NC(=O)C(C)C)c2)c(-c2ccc(F)cc2)n1 [[I-c-2], N-{4-[3-(4-fluorophenyl)-1-isobutyl-1H-pyrazol-4-yl]pyridin-2-yl}-2-methylpropanamide] | 2.89 |
| CC(C)n1cc(-c2ccnc3ccccc23)c(-c2ccc(F)cc2)n1 [[I-1], 4-[3-(4-Fluorophenyl)-1-isopropyl-1H-pyrazol-4-yl]quinoline] | 2.23 |

Continued, values first:

| chromatographic logP | SMILES |
| --- | --- |
| 0.97 | CCn1cc(-c2ccnc(N)c2)c(-c2ccc(F)cc2)n1 [[III-3], 4-[1-Ethyl-3-(4-fluorophenyl)-1H-pyrazol-4-yl]pyridin-2-amine] |
| 1.03 | Nc1cc(-c2cn(CC(F)F)nc2-c2ccc(F)cc2)ccn1 [[III-4], 4-[1-(2,2-Difluoroethyl)-3-(4-fluorophenyl)-1H-pyrazol-4-yl]pyridin-2-amine] |
| 4.51 | CC(C)n1cc(B2OC(C)(C)C(C)(C)O2)c(-c2ccc(F)cc2)n1 [[V-1], 3-(4-Fluorophenyl)-1-isopropyl-4-(4,4,5,5-tetramethyl-1,3,2-dioxaborolan-2-yl)-1H-pyrazole] |
| 4.77 | CC(C)(C)OC(=O)N1CCC(n2cc(Br)c(-c3ccc(F)cc3)n2)CC1 [[VI-27], Tert-butyl 4-[4-bromo-3-(4-fluorophenyl)-1H-pyrazol-1-yl]piperidin-1-carboxylate] |
| 4.61 | CC(C)n1nc(-c2ccc(F)cc2)c(Br)c1OC(F)F [[VI-b-2], 4-Bromo-5-(difluoromethoxy)-3-(4-fluorophenyl)-1-isopropyl-1H-pyrazole] |
| 0.98 | COCCn1cc(-c2ccnc(N)c2)c(-c2ccc(F)cc2)n1 [[III-2], 4-[3-(4-Fluorophenyl)-1-(2-methoxyethyl)-1H-pyrazol-4-yl]pyridin-2-amine] |
| 3.37 | CCn1cc(Br)c(-c2ccc(F)cc2)n1 [[VI-2], 4-Bromo-1-ethyl-3-(4-fluorophenyl)-1H-pyrazole] |
| 1.22 | CC(C)n1cc(-c2ccnc(N)c2)c(-c2ccc(F)cc2)n1 [[III-1], 4-[3-(4-Fluorophenyl)-1-isopropyl-1H-pyrazol-4-yl]pyridin-2-amine] |
| 1.54 | Fc1cccc(F)c1-c1n[nH]cc1-c1ccncc1 [[XXVII-1], 4-[3-(2,6-Difluorophenyl)-1H-pyrazol-4-yl]pyridine] |
| 4.06 | CC1(C)OB(c2cn(CCCl)nc2-c2ccc(F)cc2)OC1(C)C [[V-10], 1-(2-Chloroethyl)-3-(4-fluorophenyl)-4-(4,4,5,5-tetramethyl-1,3,2-dioxaborolan-2-yl)-1H-pyrazole] |
| 2.69 | N#CCCn1cc(Br)c(-c2ccc(F)cc2)n1 [[VI-23], 3-[4-bromo-3-(4-fluorophenyl)-1H-pyrazol-1-yl]propanonitrile] |
| 3.51 | CCOCCn1cc(Br)c(-c2ccc(F)cc2)n1 [[VI-20], 4-Bromo-1-(2-ethoxyethyl)-3-(4-fluorophenyl)-1H-pyrazole] |
| 0.6 | CN(C)C=C(C(=O)c1c(F)cccc1F)c1ccncc1 [[XXVI-1], 1-(2,6-Difluorophenyl)-3-(dimethylamino)-2-(pyridin-4-yl)prop-2-en-1-one] |
| 0 | CC1(C)OB(c2ccnc(NC(=O)C3CC3)c2)OC1(C)C [[XV-a-7], N-[4-(4,4,5,5-Tetramethyl-1,3,2-dioxaborolan-2-yl)pyridin-2-yl]cyclopropanecarboxamide] |
| 0.92 | Fc1ccc(-c2[nH]nc(C3CC3)c2-c2ccncc2)cc1 [[IX-b-2], 4-[3-(4-Fluorophenyl)-5-cyclopropyl-1H-pyrazol-4-yl]pyridine] |
| 1.38 | N#Cc1cccc(Cn2ncc(-c3ccncc3)c2-c2ccc(F)cc2)c1 [[I-4], 3-{[5-(4-Fluorophenyl)-4-(pyridin-4-yl)-1H-pyrazol-1-yl]methyl}benzonitrile] |
| 1.45 | CC(C)Nc1nccc(C(=CN(C)C)C(=O)c2ccc(F)cc2)n1 [[XLV-1], 3-(Dimethylamino)-1-(4-fluorophenyl)-2-[2-(isopropylamino)pyrimidin-4-yl]prop-2-en-1-one] |
